According to patent US20140137294A1, “GLUCOSINOLATE TRANSPORTER PROTEIN AND USES THEREOF” (UNIVERSITY OF COPENHAGEN, priority 2010, published 2014):

Target: T1, AtGTR1 (Arabidopsis thaliana, UniProt Q944G5)
T1 construct: A library of Arabidopsis transporters available as full length cDNAs from the RIKEN bioresource center; expressed in transfected cells; host or cells: Xenopus oocytes injected with in vitro transcribed cRNA
T1 sequence (Q944G5 31-636 limits assumed): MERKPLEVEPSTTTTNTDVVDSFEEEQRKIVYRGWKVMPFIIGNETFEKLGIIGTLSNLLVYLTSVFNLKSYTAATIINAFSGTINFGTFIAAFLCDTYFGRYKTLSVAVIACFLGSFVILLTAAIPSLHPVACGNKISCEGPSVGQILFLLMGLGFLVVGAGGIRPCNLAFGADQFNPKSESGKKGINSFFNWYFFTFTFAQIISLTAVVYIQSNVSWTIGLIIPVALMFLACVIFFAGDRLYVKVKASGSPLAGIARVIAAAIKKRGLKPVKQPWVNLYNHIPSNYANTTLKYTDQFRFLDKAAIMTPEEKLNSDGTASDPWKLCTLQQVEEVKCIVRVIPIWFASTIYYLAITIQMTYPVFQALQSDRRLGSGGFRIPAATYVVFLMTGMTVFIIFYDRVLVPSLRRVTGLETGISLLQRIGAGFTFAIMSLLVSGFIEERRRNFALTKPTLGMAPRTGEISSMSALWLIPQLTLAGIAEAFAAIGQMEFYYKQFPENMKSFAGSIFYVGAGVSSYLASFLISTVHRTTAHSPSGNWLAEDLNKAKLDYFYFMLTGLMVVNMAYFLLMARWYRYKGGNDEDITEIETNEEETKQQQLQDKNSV
Experiment: Uptake of C14-labeled pOHBG in AtGTR1 expressing oocytes in presence of excess competitor
Format: cell-based
Settings: 50× excess unlabeled competitor, AtGTR1, pH 5
Procedure: FIG. 3: Biochemical analysis of AtGTR1 and 2 mediated GSL transport in Xenopus oocytes. A and B, pH dependence of AtGTR-mediated GSL transport. A, AtGTR2 mediated 4-MTB uptake measured by LC-MS analysis of oocyte extracts, n=3 oocytes. B, AtGTR1 currents induced by 1 mM 4-MTB were measured at different membrane potentials at pH 5 ([…]), pH 6 (♦), and pH 7 (▴). Currents were normalized to the current induced at pH 5 at −60 mV, error bars are SD, n=4 oocytes. C and D, kinetic analysis of AtGTR-mediated glucosinolate transport. […]
The substrate specificity investigations were extended to include substrates previously identified for the NRT/PTR transporter family namely di- and tripeptides and nitrate. […] However, perfusing with 1 mM NO3^− did result in currents but these amounted only to 1/10th of currents measured when perfusing with 100 μM 4-MTB (FIG. 3F). […]
For assays with radiolabeled substrates, single oocytes were ruptured in 100 μl 10% SDS in 4 ml scintillation vials by shaking for 20-30 minutes. 2.5 ml EcoScint™ scintillation fluid (National Diagnostics) was added, and imported compounds quantified by scintillation counting. For assays with unlabeled substrates, oocyte extracts were analysed by LC-MS. Oocytes were analyzed in batches of 5 oocytes per repetition. […]

With `CSCCCC/C(=N/OS(=O)(=O)O)S[C@@H]1O[C@H](CO)[C@@H](O)[C@H](O)[C@H]1O` [4-MTB, 4-methylthiobutyl glucosinolate] the “effect on uptake of 40 μM C14-labeled pOHBG” value was “reduced the uptake of pOHBG to background levels”.
